The results in this text go back to ChEMBL document CHEMBL3507680, “University of Dundee, Gates Library screen for HepG2 cell viability”.

The data set in a line: Human HepG2 cell viability assay in 384 well format. The format is toxicity, cell-based. The conditions noted are these: HepG2 cells, read-out: Inhibition. Details: dose 125 nL, time 70.5 hour; concentration not given beside the values.
`CCN(C(=O)NCc1ccccc1OC(F)F)C(C)c1cccnc1` (stereo unspecified): the cytotoxicity at 70.5 h was determined as 0.0177%. Consider `Cc1ccc(-n2c(C)nnc2SCC(O)COCc2ccco2)cc1` (stereo unspecified), for which the cytotoxicity at 70.5 h is -5.42%. For `Cn1cc(-c2cccc(CNC(=O)N3CCC[C@@H]3CO)c2)cn1` the value was -4.94%. For `CCOC(C(=O)N1CCn2c(nnc2C(C)C)C1)c1ccccc1` (stereo unspecified) the value was 19.3%; for `COCCN(Cc1cccs1)C(=O)C1CCCN(C(N)=O)C1` (stereo unspecified), 14.1%; for `Cc1cc(NC(C)C(=O)NCC(F)(F)F)nc(-c2ccncc2)n1` (stereo unspecified), -16.5%.

Turning to `Cc1cc(NCC(=O)NCC(F)(F)F)nc(-c2ccncc2)n1`, the cytotoxicity at 70.5 h was -8.33%. For `CCN(C(=O)CN1CCC(c2cc3ccccc3[nH]2)CC1)C1CC1` the value was 4.18%; for `CCN(CC)c1ccc(NC(=O)NCC2(C(N)=O)CCOCC2)cn1`, 1.3%; for `NC(=O)C(Nc1cccc(CO)c1)c1ccc(Br)cc1` (stereo unspecified), 6.7%. To `COCc1cccc(NC(C(N)=O)c2ccc(Br)cc2)c1` (stereo unspecified) belongs -9.42%; to `Cc1cccc(-c2c[nH]c(C3CCCN3C(=O)c3cc(C)n[nH]3)n2)c1` (stereo unspecified), -9.63%; to `CCS(=O)(=O)N(C)C1CCN(Cn2ccc(-c3ccc(F)cc3)n2)CC1`, -13.9%. To `O=C(CCc1ccc(Br)cc1)NCCc1nnc[nH]1` belongs -11.9%; to `CC(C)CCNC(=O)CCc1ccnc2ccccc12`, -14.4%. `CNC(=O)CN(C)c1cncc(OCc2ccccc2)n1`: the cytotoxicity at 70.5 h was 8.53%. To `CCOc1cncc(N(C)CC(=O)NC)n1` belongs -7.85%. For the molecule `NCc1ccc(Oc2cccc(Cl)c2Cl)nc1`, the cytotoxicity at 70.5 h was found to be 6.23%. For `Cn1ccc(CNC(=O)N2CCCC3(C2)OCCO3)c1`, the cytotoxicity at 70.5 h turned out to be 0.239%.

For the molecule `CCC(NC(=O)c1cccc2cc[nH]c12)C(=O)N1CCOCC1` (stereo unspecified), the cytotoxicity at 70.5 h is -11.2%. For `CN(C)C(=O)CCS(=O)(=O)Cc1cc(Cl)c2c(c1)OCCO2` the value was -6.03%. To `CCN(CC(=O)N(C)C)S(=O)(=O)c1cnc2c(c1)c(C)nn2C` belongs -17.2%. For `CCN(CC(=O)NC)S(=O)(=O)c1cnc2c(c1)c(C)nn2C` the value was -14.3%. Take `CCCN(CC(=O)OC)S(=O)(=O)c1cnc2c(c1)c(C)nn2C`: the cytotoxicity at 70.5 h was -7.82%. For `O=C(NCC1CCCOC1)c1ccc(-c2cccs2)[nH]c1=O` (stereo unspecified), the cytotoxicity at 70.5 h turned out to be 4.28%. As for `Cn1cc(C(=O)O)c(-c2ccc(F)cc2F)n1`, the cytotoxicity at 70.5 h was -4.16%. As to `CC(=O)N1CCN(C(=O)CCc2cc(Br)cs2)CC1`, the cytotoxicity at 70.5 h was -3.42%. Take `CC(C#N)(NC(=O)Cn1cc(I)cn1)C1CC1` (stereo unspecified): the cytotoxicity at 70.5 h amounted to 6.23%. For `CC(=O)NCc1ccc(-n2ccnc2C)nc1` the value was -14.4%; for `CCN(Cc1csc(C)n1)c1cccc(CO)c1`, -3.7%; for `CCc1cc(C(=O)N2CCc3c(ncn3CCc3ccccc3)C2)[nH]n1`, 5.19%. Take `CCc1c(C)nc2ccccc2c1N1CCC(O)CC1`: the cytotoxicity at 70.5 h was -3.88%. For the molecule `CN1CCN(C(=O)CCc2cc(Br)cs2)CC1`, the cytotoxicity at 70.5 h was -6.76%. To `CN(Cc1ccc(F)cc1F)CC(C)(CO)CO` belongs -5.77%; to `Cc1cnc(NC2CCN(CC(=O)Nc3ccccc3)CC2)nc1C`, 2.9%. Consider `CN(C)c1nccc(N(C)C2CCCCC2)n1`, for which the cytotoxicity at 70.5 h is -4.22%.

For the molecule `Cc1noc(CNc2ccccc2N2CCCCC2)n1`, the cytotoxicity at 70.5 h is -2.98%.

With `Cc1cc(NC(=O)C(C)N2CCN(c3ccccc3F)CC2)no1` (stereo unspecified), the cytotoxicity at 70.5 h is 4.65%. For `CCc1ccc(Cn2nccc2NC(=O)C2CCS(=O)(=O)C2)cc1` (stereo unspecified) the value was -3.51%.

On to `CCCC(=O)NS(=O)(=O)c1ccc(C#N)c(C(F)(F)F)c1`, for which the cytotoxicity at 70.5 h amounted to 1.39%.

With `CC(C)(C)C(=O)NS(=O)(=O)c1ccc(C#N)c(C(F)(F)F)c1`, the cytotoxicity at 70.5 h worked out at 7.04%. For `CC(C(=O)NC(N)=O)N1CCN(c2ccc(C#N)cc2F)CC1` (stereo unspecified) the value was -19.1%; for `Cc1nc2ccccc2n1CCNCc1cccc(O)c1`, -4.75%. To `COCCCNC(=O)CN(C)C(=O)CN(C)c1ccc(C#N)cn1` belongs -7.44%; to `CC1(C)Cc2ccc(C(=O)NC3CCS(=O)(=O)C3)c(O)c2O1` (stereo unspecified), 12.1%; to `CC/C=C(/C)C(=O)NS(=O)(=O)c1ccc(C#N)cc1C(F)(F)F`, -7.29%. Consider `CC/C=C(/C)C(=O)NS(=O)(=O)c1ccc(C#N)c(C(F)(F)F)c1`, for which the cytotoxicity at 70.5 h was -12.5%. For `COc1ccccc1C(C)(C)NC(=O)NC1CCC(O)CC1` (stereo unspecified), the cytotoxicity at 70.5 h was -15.4%. To `O=C(Nc1cccnc1)NC(CCCO)c1ccccc1` (stereo unspecified) belongs -16%. Turning to `CCNC(=O)N1CCc2ccc(NC(=O)C(C)c3ccsc3)cc21` (stereo unspecified), the cytotoxicity at 70.5 h was -11.3%. `O=C1CCCc2[nH]c(=O)c(C(=O)N3CCc4ccccc4C3)cc21`: the cytotoxicity at 70.5 h stood at 0.27%. For `Cn1nccc1NC(=O)CN1CCc2sccc2C1` the value was -11.2%; for `CN(C)Cc1ccc(CNC(=O)NCC2(C)CCCS2)cc1` (stereo unspecified), 7.26%; for `O=C1CCC(C(=O)Nc2cnn(-c3ccccc3Br)c2)N1` (stereo unspecified), -15.6%.

Consider `Cc1ccc(F)c(N2CCCC(Nc3nccn4cnnc34)C2=O)c1` (stereo unspecified), for which the cytotoxicity at 70.5 h is -11.1%. For `O=C1C(Nc2nccn3cnnc23)CCN1c1cccc(Cl)c1` (stereo unspecified) the value was -11.2%; for `CC(C)n1nccc1NC(=O)CN1CCc2sccc2C1`, -15.3%; for `CC(C)CN1CCC(NC(C)c2ccccc2-n2cccn2)CC1` (stereo unspecified), -3.22%. Take `CN(Cc1cccc(OC(F)(F)F)c1)C(=O)c1cnsn1`: the cytotoxicity at 70.5 h was -3.78%. As to `CC(C)C(NC(=O)c1ccccc1F)C(=O)Nc1cnn(C)c1` (stereo unspecified), the cytotoxicity at 70.5 h is -13.2%. To `CCn1cnnc1CCNC(=O)C(C)(C)c1cccc(Cl)c1` belongs -7.37%.

As to `CC(Nc1ccc(CN2CCCC2=O)cc1)C(=O)N(C)CCC#N` (stereo unspecified), the cytotoxicity at 70.5 h was determined as 0.0537%. With `CC(Nc1ccc(CCN2CCOCC2)cc1)C(=O)N(C)CCC#N` (stereo unspecified), the cytotoxicity at 70.5 h worked out at 9.3%.

In the case of `Cc1c(NCCOCC(F)(F)F)cccc1C(=O)N1CCCC1`, the cytotoxicity at 70.5 h was -10.8%. To `Cc1cc(C(=O)N2CCCC2)ccc1NCCO` belongs -10.2%. As to `Cc1ccc(NCc2ccco2)cc1N1CCOC1=O`, the cytotoxicity at 70.5 h is -16%. On to `COc1ccc(-c2nc(C3(NC(=O)OC(C)(C)C)CCC3)no2)cn1`, for which the cytotoxicity at 70.5 h is -3.79%.

With `CCOCc1ccc(NC(=O)NC2CCCn3nc(CC)nc32)cc1` (stereo unspecified), the cytotoxicity at 70.5 h is -7.72%. Take `CC(C)(C)OC(=O)NC1(c2noc(-c3ccco3)n2)CCC1`: the cytotoxicity at 70.5 h was -9.18%. For `Fc1ccc(CNc2ccccc2Cn2cncn2)cc1` the value was -7.99%; for `O=S(=O)(CC1CCOCC1)NCc1ccnc(O)c1`, 10.4%; for `C=C(C)Cn1ccc2cc(OC)c(F)cc2c1=O`, -2.43%. To `COc1cc2ccn(CCCO)c(=O)c2cc1F` belongs -6.17%; to `O=C(NC1CC(F)(F)C1)[C@]12COC[C@H]1CN(Cc1ccsc1)C2`, -2.91%; to `Cc1nnc([C@@]23CCO[C@@H]2CCN(Cc2ccc4c(c2)OCO4)C3)o1`, -2.95%. Take `CN(C)C(=O)C1CCC2(CCN(C(=O)Nc3ccc(F)cc3)CC2)O1` (stereo unspecified): the cytotoxicity at 70.5 h is -12.4%. For `CC1c2ncc(COc3cccnc3)n2CCN1Cc1ccco1` (stereo unspecified) the value was -12.4%; for `CN1CCN(S(=O)(=O)C2CC2)Cc2cccnc21`, -0.334%. As to `O=C(c1ccsc1)N1CCC2(CC1)CCN(S(=O)(=O)C1CC1)CC2`, the cytotoxicity at 70.5 h is -9.77%.

Turning to `COCC1CN(CCc2ccc(OC)c(OC)c2)Cc2c1cnn2C` (stereo unspecified), the cytotoxicity at 70.5 h was -8.2%.

As for `CC(C)n1cnc(-c2nc(C(=O)NC3CC3)c3ccccn23)c1`, the cytotoxicity at 70.5 h was -15.8%. Regarding `COCc1cnc2n1CCN(C(=O)c1cc3ccccc3o1)C2C` (stereo unspecified), the cytotoxicity at 70.5 h was 18.8%. Turning to `COCc1cnc2n1CCN(C(=O)c1oc3ccccc3c1C)C2C` (stereo unspecified), the cytotoxicity at 70.5 h stood at 18.3%. To `COCc1cnc2n1CCN(C(=O)c1cnc3ccccc3c1)C2C` (stereo unspecified) belongs -9.53%; to `Cn1cccc1C(=O)N1C[C@H](OCC2CCOCC2)[C@H]2COC[C@H]21`, -10.8%; to `COc1cc(N2CCC3(CC2)CCN(c2cccnc2)C3=O)ncn1`, -9.9%. For the molecule `Cn1cccc1C(=O)NCc1cnc2n1CCN(CC1CCOCC1)C2`, the cytotoxicity at 70.5 h was -3.17%. To `CN1CCN(S(=O)(=O)c2ccccc2)Cc2cccnc21` belongs -4.28%; to `Cc1cc(C(=O)N2CCC3(CC2)C(=O)N(C)CCN3CC2CC2)c(C)o1`, -2.24%. As for `Cc1ccc(C(=O)N2CCC3(CCN3Cc3ccc(F)cc3)C2)cn1` (stereo unspecified), the cytotoxicity at 70.5 h is -8.15%. Regarding `CCS(=O)(=O)Nc1ccc2c(c1)C1(CCOCC1)CN2C`, the cytotoxicity at 70.5 h is -1.55%. As to `CNC(=O)c1cc2c(nc1N(C)C)CCN(c1ncc(C)cn1)CC2`, the cytotoxicity at 70.5 h is -6.83%. To `CCOC[C@]12COC[C@H]1CN(Cc1ccc(F)c(F)c1)C2` belongs -4.64%. On to `COCc1cnc2n1CCN(C(=O)c1ccc3ccccc3n1)C2C` (stereo unspecified), for which the cytotoxicity at 70.5 h was -8.35%. In the case of `CNC(=O)[C@H]1CC[C@@H]2[C@@H](CCN2CCOCc2ccccc2)O1`, the cytotoxicity at 70.5 h was -12.3%. For `O=C(NCCc1cccs1)[C@]12COC[C@H]1CN(c1ncccn1)C2` the value was -13.7%; for `Cn1cc(-c2ncc3c(c2C(=O)O)CCN(CC2CC2)C3)cn1`, -1.4%. To `Cc1cccc(CN2CCCC3(CCN(CC4CCCO4)CC3)C2)n1` (stereo unspecified) belongs -11.4%; to `Cc1csc(CN2CCn3c(COc4cccnc4)cnc3C2C)n1` (stereo unspecified), -9.58%; to `CCn1ncc2c1CN(CCc1cccc(Cl)c1)CC2COC` (stereo unspecified), -8.31%. Regarding `O=C(NCCc1cccs1)[C@]12COC[C@H]1CN(Cc1ccccn1)C2`, the cytotoxicity at 70.5 h came to 39.1%.
